Usually IC50 stands for the concentration needed to halve the response being measured. For orientation: IC95 means the concentration at which the effect reaches the 95% level. Low readings indicate an effect from little substance, high ones a need for much substance.

Molecules are shown by their SMILES. Where only a bound is given, the exact number is not on record here.

The test system of one experiment is CCRF-CEM. Kind of experiment: (§1) Antiviral activity to inhibit viral replication of HIV-1 infected CEM cells. Type of experiment: functional, cell-based. Particulars: Homo sapiens.
As to `CC(C)CN(C[C@@H](O)[C@H](Cc1ccccc1)NC(=O)[C@@H](CS(=O)(=O)c1ccc(F)cc1)NS(C)(=O)=O)C(=O)NC(C)(C)C`, inhibition was half-maximal at 10000 nM (IC50).
Regarding `CC(=O)N[C@H](CS(=O)(=O)c1ccc(F)cc1)C(=O)N[C@@H](Cc1ccccc1)[C@H](O)CN1C[C@H]2CCS[C@H]2C[C@H]1C(=O)NC(C)(C)C`, the IC50 was found to be 70 nM.
Still for that read-out and setting: the value for `CC(=O)N[C@H](CS(=O)(=O)c1ccc2ccccc2c1)C(=O)N[C@@H](Cc1ccccc1)[C@H](O)CN1C[C@H]2CCCC[C@H]2C[C@H]1C(=O)NC(C)(C)C` was 9.5 nM; that for `CC(C)(C)NC(=O)[C@@H]1C[C@@H]2CCCC[C@@H]2CN1C[C@@H](O)[C@H](Cc1ccccc1)NC(=O)[C@@H](C[S+]([O-])c1ccc2ccccc2c1)NS(C)(=O)=O` (stereo partly drawn) was 3.8 nM.
On the same count and under the same terms, the result for `CC(C)(C)NC(=O)[C@@H]1C[C@@H]2SCC[C@@H]2CN1C[C@@H](O)[C@H](Cc1ccccc1)NC(=O)[C@@H](CS(=O)(=O)c1cccc2cccnc12)NC(=O)C(F)(F)F` reads 18 nM.
In turn, `CC(C)(C)NC(=O)[C@@H]1C[C@@H]2SCC[C@@H]2CN1C[C@@H](O)[C@H](Cc1ccccc1)NC(=O)[C@@H](CS(=O)(=O)c1ccc2ccccc2c1)NS(C)(=O)=O` returned an IC50 of 27 nM.
In the case of `CC(C)CN(C[C@@H](O)[C@H](Cc1ccccc1)NC(=O)[C@@H](CSc1ccc2ccccc2c1)NS(C)(=O)=O)C(=O)NC(C)(C)C`, the IC50 was determined as 4700 nM.
Same read-out and setting: the result for `CC(C)(C)NC(=O)[C@@H]1C[C@@H]2SCC[C@@H]2CN1C[C@@H](O)[C@H](Cc1ccccc1)NC(=O)[C@@H](CS(=O)(=O)c1ccc(F)cc1)NS(C)(=O)=O` reads 43 nM.
`CC(=O)N[C@H](CSCc1ccccc1)C(=O)N[C@@H](Cc1ccccc1)[C@H](O)CN1C[C@H]2CCCC[C@H]2C[C@H]1C(=O)NC(C)(C)C` returned an IC50 of 77 nM.
The same measure, in the same setting: the value for `CC(C)(C)NC(=O)[C@@H]1C[C@@H]2SCC[C@@H]2CN1C[C@@H](O)[C@H](Cc1ccccc1)NC(=O)[C@@H](CS(=O)(=O)c1ccc2ccccc2c1)NC(=O)C(F)(F)F` was 4.6 nM.
Turning to `CC(=O)N[C@H](CS(=O)(=O)c1cccc2cccnc12)C(=O)N[C@@H](Cc1ccccc1)[C@H](O)CN1C[C@H]2CCS[C@H]2C[C@H]1C(=O)NC(C)(C)C`, inhibition was half-maximal at 140 nM (IC50).
Take `CC(C)(C)NC(=O)[C@@H]1C[C@@H]2CCCC[C@@H]2CN1C[C@@H](O)[C@H](Cc1ccccc1)NC(=O)[C@@H](CSc1ccc(F)cc1)NS(C)(=O)=O`: the midpoint of inhibition, the IC50, lay at 150 nM.
`CC(C)(C)NC(=O)[C@@H]1C[C@@H]2SCC[C@@H]2CN1C[C@@H](O)[C@H](CSc1ccccc1)NC(=O)[C@@H](CS(=O)(=O)c1ccc(F)cc1)NC(=O)C(F)(F)F` returned an IC50 of 180 nM.

The subject of another experiment is CCRF-CEM. The description is as §1. Type of experiment: functional. The conditions noted are these: Homo sapiens.
Compound `CC(C)CN(C[C@@H](O)[C@H](Cc1ccccc1)NC(=O)[C@@H](CS(=O)(=O)c1ccc(F)cc1)NS(C)(=O)=O)C(=O)NC(C)(C)C` returned an IC95 of 21000 nM.
Compound `CC(=O)N[C@H](CS(=O)(=O)c1ccc(F)cc1)C(=O)N[C@@H](Cc1ccccc1)[C@H](O)CN1C[C@H]2CCS[C@H]2C[C@H]1C(=O)NC(C)(C)C` gave an IC95 of 730 nM.
Turning to `CC(=O)N[C@H](CS(=O)(=O)c1ccc2ccccc2c1)C(=O)N[C@@H](Cc1ccccc1)[C@H](O)CN1C[C@H]2CCCC[C@H]2C[C@H]1C(=O)NC(C)(C)C`, the IC95 was determined as 22 nM.
Compound `CC(C)(C)NC(=O)[C@@H]1C[C@@H]2CCCC[C@@H]2CN1C[C@@H](O)[C@H](Cc1ccccc1)NC(=O)[C@@H](C[S+]([O-])c1ccc2ccccc2c1)NS(C)(=O)=O` (stereo partly drawn) displayed an IC95 of 8.2 nM.
The compound `CC(C)(C)NC(=O)[C@@H]1C[C@@H]2SCC[C@@H]2CN1C[C@@H](O)[C@H](Cc1ccccc1)NC(=O)[C@@H](CS(=O)(=O)c1cccc2cccnc12)NC(=O)C(F)(F)F` had an IC95 of 62 nM.
Take `CC(C)(C)NC(=O)[C@@H]1C[C@@H]2SCC[C@@H]2CN1C[C@@H](O)[C@H](Cc1ccccc1)NC(=O)[C@@H](CS(=O)(=O)c1ccc2ccccc2c1)NS(C)(=O)=O`: the IC95 was determined as 85 nM.
Consider `CC(C)CN(C[C@@H](O)[C@H](Cc1ccccc1)NC(=O)[C@@H](CSc1ccc2ccccc2c1)NS(C)(=O)=O)C(=O)NC(C)(C)C`, for which the IC95 worked out at 9900 nM.
`CC(C)(C)NC(=O)[C@@H]1C[C@@H]2SCC[C@@H]2CN1C[C@@H](O)[C@H](Cc1ccccc1)NC(=O)[C@@H](CS(=O)(=O)c1ccc(F)cc1)NS(C)(=O)=O`: the IC95 was 190 nM.
On the same count and under the same terms, the value for `CC(=O)N[C@H](CSCc1ccccc1)C(=O)N[C@@H](Cc1ccccc1)[C@H](O)CN1C[C@H]2CCCC[C@H]2C[C@H]1C(=O)NC(C)(C)C` was 305 nM; that for `CC(C)(C)NC(=O)[C@@H]1C[C@@H]2SCC[C@@H]2CN1C[C@@H](O)[C@H](Cc1ccccc1)NC(=O)[C@@H](CS(=O)(=O)c1ccc2ccccc2c1)NC(=O)C(F)(F)F` was 32 nM; that for `CC(=O)N[C@H](CS(=O)(=O)c1cccc2cccnc12)C(=O)N[C@@H](Cc1ccccc1)[C@H](O)CN1C[C@H]2CCS[C@H]2C[C@H]1C(=O)NC(C)(C)C` was 300 nM.
The compound `CC(C)(C)NC(=O)[C@@H]1C[C@@H]2CCCC[C@@H]2CN1C[C@@H](O)[C@H](Cc1ccccc1)NC(=O)[C@@H](CSc1ccc(F)cc1)NS(C)(=O)=O` displayed an IC95 of 550 nM.
`CC(C)(C)NC(=O)[C@@H]1C[C@@H]2SCC[C@@H]2CN1C[C@@H](O)[C@H](CSc1ccccc1)NC(=O)[C@@H](CS(=O)(=O)c1ccc(F)cc1)NC(=O)C(F)(F)F` yielded an IC95 of 840 nM.

In the next experiment the target is Human immunodeficiency virus type 1 protease (Human immunodeficiency virus 1, UniProt Q72874). Kind of experiment: Inhibitory activity against HIV-1 protease.
Details: not given
The compound `CC(C)CN(C[C@@H](O)[C@H](Cc1ccccc1)NC(=O)[C@@H](CS(=O)(=O)c1ccc(F)cc1)NS(C)(=O)=O)C(=O)NC(C)(C)C` displayed an IC50 of 10 nM.
Still for that read-out and setting: the value for `CC(=O)N[C@H](CS(=O)(=O)c1ccc2ccccc2c1)C(=O)N[C@@H](Cc1ccccc1)[C@H](O)CN1C[C@H]2CCCC[C@H]2C[C@H]1C(=O)NC(C)(C)C` was 1.6 nM; that for `CC(C)(C)NC(=O)[C@@H]1C[C@@H]2CCCC[C@@H]2CN1C[C@@H](O)[C@H](Cc1ccccc1)NC(=O)[C@@H](C[S+]([O-])c1ccc2ccccc2c1)NS(C)(=O)=O` (stereo partly drawn) was 0.4 nM.
The compound `CC(C)(C)NC(=O)[C@@H]1C[C@@H]2SCC[C@@H]2CN1C[C@@H](O)[C@H](Cc1ccccc1)NC(=O)[C@@H](CS(=O)(=O)c1cccc2cccnc12)NC(=O)C(F)(F)F` came in with an IC50 of 0.21 nM.
On the same count and under the same terms, the value for `CC(C)(C)NC(=O)[C@@H]1C[C@@H]2SCC[C@@H]2CN1C[C@@H](O)[C@H](Cc1ccccc1)NC(=O)[C@@H](CS(=O)(=O)c1ccc2ccccc2c1)NS(C)(=O)=O` was below 0.2 nM.
The compound `CC(C)CN(C[C@@H](O)[C@H](Cc1ccccc1)NC(=O)[C@@H](CSc1ccc2ccccc2c1)NS(C)(=O)=O)C(=O)NC(C)(C)C` registered an IC50 of 50 nM.
Compound `CC(C)(C)NC(=O)[C@@H]1C[C@@H]2SCC[C@@H]2CN1C[C@@H](O)[C@H](Cc1ccccc1)NC(=O)[C@@H](CS(=O)(=O)c1ccc(F)cc1)NS(C)(=O)=O` gave an IC50 of 0.22 nM.
Still for that read-out and setting: the value for `CC(=O)N[C@H](CSCc1ccccc1)C(=O)N[C@@H](Cc1ccccc1)[C@H](O)CN1C[C@H]2CCCC[C@H]2C[C@H]1C(=O)NC(C)(C)C` was 6 nM; that for `CC(C)(C)NC(=O)[C@@H]1C[C@@H]2SCC[C@@H]2CN1C[C@@H](O)[C@H](Cc1ccccc1)NC(=O)[C@@H](CS(=O)(=O)c1ccc2ccccc2c1)NC(=O)C(F)(F)F` was below 0.2 nM; that for `CC(=O)N[C@H](CS(=O)(=O)c1cccc2cccnc12)C(=O)N[C@@H](Cc1ccccc1)[C@H](O)CN1C[C@H]2CCS[C@H]2C[C@H]1C(=O)NC(C)(C)C` was 0.42 nM.
For the compound `CC(C)(C)NC(=O)[C@@H]1C[C@@H]2CCCC[C@@H]2CN1C[C@@H](O)[C@H](Cc1ccccc1)NC(=O)[C@@H](CSc1ccc(F)cc1)NS(C)(=O)=O`, the IC50 was determined as 24 nM.
`CC(C)(C)NC(=O)[C@@H]1C[C@@H]2SCC[C@@H]2CN1C[C@@H](O)[C@H](CSc1ccccc1)NC(=O)[C@@H](CS(=O)(=O)c1ccc(F)cc1)NC(=O)C(F)(F)F` returned an IC50 of 10 nM.

The values above are taken from ChEMBL document CHEMBL1128092, “Potent, orally bioavailable HIV-1 protease inhibitors containing noncoded D-amino acids” (Bioorg Med Chem Lett, 1995).
